# Data as given in publication PMC9606171, “Synthetic PPAR Agonist DTMB Alleviates Alzheimer’s Disease Pathology by Inhibition of Chronic Microglial Inflammation in 5xFAD Mice” (Neurotherapeutics, 2022).
# Key:
# [1] = biological target: T1, recombinant human PPAR β/δ LBD (Homo sapiens, UniProt Q03181); assay: CNBr-bead pull down assay, PPAR β/δ LBD; assay type: binding; details: drug conjugated CNBr beads
# T1 sequence (Q03181 211-439 limits assumed): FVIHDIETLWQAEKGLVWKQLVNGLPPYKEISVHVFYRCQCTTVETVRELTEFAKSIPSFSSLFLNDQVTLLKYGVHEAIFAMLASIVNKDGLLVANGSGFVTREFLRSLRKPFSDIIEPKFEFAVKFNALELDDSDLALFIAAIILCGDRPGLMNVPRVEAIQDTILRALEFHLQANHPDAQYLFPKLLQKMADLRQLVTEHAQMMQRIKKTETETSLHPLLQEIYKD
# Protocol: (§1) CNBr Sepharose 4B beads were prepared and activated according to the instruction. 100 mg of CNBr activated Sepharose 4B beads were incubated with drugs or DMSO for 18 h at 4 °C. The drug conjugated beads reacted to his-tagged recombinant PPAR α, β/δ, and γ protein. After 24 h of incubation, we confirmed whether recombinant protein binds to the drug conjugated bead through western blotting experiment.
# [2] = biological target: T2, recombinant human PPARγ LBD (Homo sapiens, UniProt P37231); assay: CNBr-bead pull down assay, PPARγ LBD; assay type: binding; details: drug conjugated CNBr beads
# T2 sequence (P37231 238-503 limits assumed): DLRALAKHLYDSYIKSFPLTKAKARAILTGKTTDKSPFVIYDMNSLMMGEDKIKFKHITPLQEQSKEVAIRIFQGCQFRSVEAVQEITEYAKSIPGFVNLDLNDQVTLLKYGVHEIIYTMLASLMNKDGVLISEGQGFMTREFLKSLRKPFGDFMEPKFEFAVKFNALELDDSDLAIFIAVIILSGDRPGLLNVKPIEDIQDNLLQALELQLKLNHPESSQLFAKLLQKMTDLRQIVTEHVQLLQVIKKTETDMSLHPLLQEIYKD
# Protocol: as §1
# BV2 = assay: Cell viability assay (MTT), BV2; assay type: cell-based, mouse; details: 48 h
# Protocol: Cell viability was measured by chromogenic assay involving the biological reduction of 3-(4,5-dimethyl-thiazol-2-yl)-2,5-diphenyltetrazoliumbromide (MTT) to formazan in living cells. Briefly, cells were seeded in 96-well plates in a final volume of 100 μL. After 24 h, the culture media were replaced with fresh media containing DTMB compounds, and the cells were cultured for another 48 h. Next, MTT (5 mg/mL in PBS) was added to the culture medium. The cells were incubated for 1 h in the dark at 37 °C, and the supernatant was then removed from the well. Total MTT solvent (4 mM HCl and 0.1% Nonidet P-40, both in isopropanol) was added to dissolve the formazan crystal, and absorbance was measured at 570 nm using a microplate reader Infinite 200 Pro NanoQuant microplate reader (TECAN, Switzerland).
# BV2 microglia cells = assay: ELISA of proinflammatory cytokines, BV2 microglia cells; assay type: cell-based, mouse; details: LPS or pre-aggregated human Aβ1-42, 24 h
# Protocol: We measured cytokine level (TNF-α, IL-1β, and IL-6) in the media of LPS (1 μg/mL) and human Aβ1-42 (5 μg/mL)-treated BV2 microglia cells and primary microglia. Human Aβ1-42 (AnaSpec, Fremont, CA, USA) were pre-aggregated in the incubator for 24 h before the treatment to the cells. BV2 cells and primary microglia cells were seeded on 12-well plates (SPL) at a density of 1 × 10^5 cells/well cultured in 1 mL of complete media. After 12 h, LPS or human Aβ1-42 were treated to cells and were further incubated for 24 h with DTMB. ELISA experiments were conducted by using mouse TNF-α ELISA kit (Invitrogen, BMS607-3TEN), mouse IL-1β ELISA kit (Invitrogen, BMS6002), and mouse IL-6 ELISA kit (Invitrogen, BMS603-2) according to the manufacturer’s instruction.
# BV2 cells = assay: Western blot of NF-κB, NLRP3 and ASC in BV2 cells; assay type: cell-based, mouse
# Protocol: The BV2 mouse microglia cell line was received from Professor K. H. Suk (Kyungpook National University, Korea). BV2 cells were cultured with Dulbecco’s Modified Eagle Medium (DMEM) (Hyclone, Logan, UT, USA), containing 5% fetal bovine serum (FBS, Hyclone) and 50 μg/mL of gentamicin (Lonza, Switzerland), in a 5% CO2 incubator with a humidified atmosphere at 37 °C. RAW 264.7 macrophage cells were cultured with DMEM that contains 10% FBS and 1% penicillin/streptomycin in a 5% CO2 incubator with a humidified atmosphere at 37 °C.
# Cells were lysed with lysis buffer containing 50 mM Tris (pH 7.4), 140 mM NaCl, 5 mM EDTA, and a protease inhibitor tablet, followed by sonication. Lysate protein concentrations were determined using Bradford reagents (AMERSCO, MA, USA). Proteins were resolved by sodium dodecyl sulfate (SDS) polyacrylamide gel electrophoresis, transferred to nitrocellulose membranes (Pall Corporation, New York, NY, USA), and incubated with blocking buffer (5% nonfat dry milk in TBS and 0.1% Tween 20) for 30 min. Western blot analyses were performed using primary antibodies against NF-κB, NLRP3, ASC, nicastrin, pen2 (Cell Signaling Technology, Danvers, MA, USA), Aph1 (Invitrogen), amyloid C-terminal fragment (Santa Cruz Biotechnology, Dallas, TX, USA), and GAPDH (Bethyl Laboratories, Mongomery, TX, USA). Secondary antibodies of rabbit (Promega), rat, and goat (Bethyl Laboratories) were used, and detection was performed with SUPEX ECL reagent (Neuronex, Korea) and an ImageQuant LAS-4000 (GE Healthcare, MA, USA), according to the manufacturer’s instructions. The integrated blot density was quantified through ImageJ.
# 5xFAD mice = assay: Immunohistochemistry of Aβ plaques (6e10) in 5xFAD brain; assay type: in vivo; details: 10 mg/kg orally, 3 months, versus transgenic control
# Protocol: DTMB was synthesized from Daejung Chemicals (Korea) and was dissolved in dimethyl sulfoxide (Sigma Aldrich, St. Louis, MO, USA) for cell-based experiments. To evaluate the effects of DTMB on 5xFAD mice, DTMB (10 mg/kg) and vehicle (1% carboxymethylcellulose and 10% DMSO) were orally administrated to four groups (wild-type, wild-type + DTMB, 5xFAD, and 5xFAD + DTMB) with a 6 day per week for 3 months.
# Mice were perfused with ice-cold phosphate-buffered saline (PBS). Brain tissues were separately used for either molecular analysis or immunohistochemistry. The right hemisphere was fixed with 4% PFA and was transferred to a sucrose solution (30%) for 24 h. The right hemisphere was embedded and frozen in optimal cutting temperature compound on dry ice. Coronal Sections (18 μm thick) that included the hippocampus were cut and prepared on slide glasses. Tissue sections were then permeabilized and blocked using a blocking solution (5% goat serum and 0.2% Triton X-100 in PBS) for 1 h at room temperature. Primary antibody incubation was performed overnight at 4 °C using an anti-6e10 antibody (Biolegend, Japan, 1:100), anti-Iba1 antibody (Wako, Japan, 1:200), and anti-GFAP antibody (Abcam, Cambridge, UK, 1:200). […] Slides were counterstained in Hoechst and then mounted in fluorescence mounting medium (Dako, Denmark). […] Fluorescence was measured by calculating % area and was analyzed using ImageJ. […]
smiles,measurement,setting,value
COc1ccc(-c2cc(=O)oc3c(C)c(OC(=O)[C@H](Cc4c[nH]c5ccccc45)NC(=O)OC(C)(C)C)ccc23)cc1 [DTMB],"binding to PPAR LBD (pull-down, western blot)",[1],binds
same,"binding to PPAR LBD (pull-down, western blot)",[2],binds
same,cytotoxicity (MTT),BV2,no cytotoxicity
same,"level of cytokines (TNF-α, IL-1β, IL-6) induced by inflammatory signals",BV2 microglia cells,dramatically reduced
same,protein level of ASC,BV2 cells,not changed
same,protein level of NF-κB,BV2 cells,decreased
same,protein level of NLRP3,BV2 cells,decreased
same,amount of Aβ aggregates in the hippocampus and cortex,5xFAD mice,significantly decreased
